ChEMBL document CHEMBL3877279, “Design, synthesis, in-silico and biological evaluation of novel donepezil derivatives as multi-target-directed ligands for the treatment of Alzheimer's disease” (Eur J Med Chem, 2017)
The source made the active and inactive calls. The calls are words filed in the database; no cut-off is given here.

Key:
Acetylcholinesterase = Acetylcholinesterase (Electrophorus electricus, UniProt O42275); assay: Inhibition of Electric eel AChE using acetylthiocholine iodide as substrate preincubated for 5 mins followed by substrate addition measured after 2 mins by Ellman's method
Cholinesterase = Cholinesterase (Equus caballus, UniProt P81908); assay: Inhibition of equine serum BuChE using butyrylthiocholine iodide as substrate preincubated for 5 mins followed by substrate addition measured after 2 mins by Ellman's method; format: ADME
[1] = Selectivity index, ratio of IC50 for equine serum BuChE to IC50 for Electric eel AChE
[2] = target: T1, Amyloid-beta precursor protein (Homo sapiens, UniProt P05067); assay: Inhibition of HFIP-pretreated amyloid beta (1 to 42) (unknown origin) self-induced aggregation at 25 uM after 48 hrs by thioflavin-T fluorescence assay relative to control
[3] = target: T1, Amyloid-beta precursor protein; assay: Inhibition of HFIP-pretreated amyloid beta (1 to 42) (unknown origin) self-induced aggregation after 48 hrs by thioflavin-T fluorescence assay
[4] = target: T1, Amyloid-beta precursor protein; assay: Potency index, ratio of curcumin IC50 to compound IC50 for HFIP-pretreated amyloid beta (1 to 42) (unknown origin) self-induced aggregation
[5] = target: T1, Amyloid-beta precursor protein; assay: Inhibition of amyloid beta (1 to 42) (unknown origin) fibril formation at 25 uM after 48 hrs by uranyl acetate staining based transmission electron microscopic method
[6] = Antioxidant activity assessed as trolox equivalent of AAPH radical scavenging activity at 1 to 25 uM preincubated for 15 mins followed by AAPH addition measured every min for 80 mins by ORAC-FL assay; format: functional
[7] = Cytotoxicity against human SH-SY5Y cells assessed as reduction in cell viability after 48 hrs by MTT assay; format: toxicity, cell-based
[8] = Cytotoxicity against human SH-SY5Y cells assessed as cell viability at 1 uM after 48 hrs by MTT assay relative to control; format: toxicity, cell-based; details: read-out: Activity
[9] = Cytotoxicity against human SH-SY5Y cells assessed as cell viability at 5 uM after 48 hrs by MTT assay relative to control; format: toxicity, cell-based; details: read-out: Activity
[10] = Cytotoxicity against human SH-SY5Y cells assessed as cell viability at 10 uM after 48 hrs by MTT assay relative to control; format: toxicity, cell-based; details: read-out: Activity
[11] = Cytotoxicity against human SH-SY5Y cells assessed as cell viability at 25 uM after 48 hrs by MTT assay relative to control; format: toxicity, cell-based; details: read-out: Activity
[12] = Cytotoxicity against human SH-SY5Y cells assessed as cell viability at 50 uM after 48 hrs by MTT assay relative to control; format: toxicity, cell-based; details: read-out: Activity
[13] = Cytotoxicity against human SH-SY5Y cells assessed as cell viability at 75 uM after 48 hrs by MTT assay relative to control; format: toxicity, cell-based; details: read-out: Activity
[14] = Cytotoxicity against human SH-SY5Y cells assessed as cell viability at 100 uM after 48 hrs by MTT assay relative to control; format: toxicity, cell-based; details: read-out: Activity
SH-SY5Y [15] = assay: Neuroprotective activity against H2O2-induced oxidative stress in human SH-SY5Y cells assessed as inhibition of ROS accumulation at 10 to 20 uM after 24 hrs by DCFH-DA probe based fluorescence assay; format: functional, cell-based
SH-SY5Y [16] = assay: Neuroprotective activity against H2O2-induced oxidative stress in human SH-SY5Y cells assessed as increase in cell viability at 5 to 20 uM after 24 hrs by MTT assay; format: functional, cell-based
SH-SY5Y [17] = assay: Neuroprotective activity against H2O2-induced morphological changes in human SH-SY5Y cells assessed as decrease in cell rounding at 20 uM after 24 hrs by phase contrast microscopic method; format: functional, cell-based
SH-SY5Y [18] = assay: Neuroprotective activity against H2O2-induced morphological changes in human SH-SY5Y cells assessed as decrease in cell vacuolation at 20 uM after 24 hrs by phase contrast microscopic method; format: functional, cell-based
SH-SY5Y [19] = assay: Neuroprotective activity against H2O2-induced morphological changes in human SH-SY5Y cells assessed as decrease in floated appearance at 20 uM after 24 hrs by phase contrast microscopic method; format: functional, cell-based
SH-SY5Y [20] = assay: Neuroprotective activity against amyloid beta (1 to 42)-induced neurodegeneration in human SH-SY5Y cells assessed as increase in cell viability at 20 uM after 48 hrs by MTT assay; format: functional, cell-based
SH-SY5Y [21] = assay: Neuroprotective activity against amyloid beta (1 to 42)-induced morphological changes in human SH-SY5Y cells assessed as decrease in shrinked cell body at 20 uM after 48 hrs by phase contrast microscopic method; format: functional, cell-based
SH-SY5Y [22] = assay: Neuroprotective activity against amyloid beta (1 to 42)-induced morphological changes in human SH-SY5Y cells assessed as decrease in fading synapses at 20 uM after 48 hrs by phase contrast microscopic method; format: functional, cell-based
SH-SY5Y [23] = assay: Neuroprotective activity against amyloid beta (1 to 42)-induced morphological changes in human SH-SY5Y cells assessed as decrease in loss of adherence at 20 uM after 48 hrs by phase contrast microscopic method; format: functional, cell-based
SH-SY5Y [24] = assay: Neuroprotective activity against amyloid beta (1 to 42)-induced morphological changes in human SH-SY5Y cells assessed as decrease in fragmented or rounded floating cells at 20 uM after 48 hrs by phase contrast microscopic method; format: functional, cell-based
[25] = target: T1, Amyloid-beta precursor protein; assay: Potency index, ratio of compound effect to curcumin effect for inhibition of HFIP-pretreated amyloid beta (1 to 42) (unknown origin) self-induced aggregation at 25 uM
[26] = target: Acetylcholinesterase (Electrophorus electricus) (UniProt O42275); assay: Mixed-type inhibition of Electric eel AChE at 10 to 40 nM using varying levels of acetylthiocholine iodide as substrate preincubated for 15 mins followed by substrate addition by Lineweaver-Burk plot analysis
SH-SY5Y [27] = assay: Neuroprotective activity against H2O2-induced oxidative stress in human SH-SY5Y cells assessed as increase in cell viability at 20 uM after 24 hrs by MTT assay; format: functional, cell-based
SH-SY5Y [28] = assay: Neuroprotective activity against amyloid beta (1 to 42)-induced neurodegeneration in human SH-SY5Y cells assessed as increase in cell viability at 10 uM after 48 hrs by MTT assay; format: functional, cell-based

Sequence of Acetylcholinesterase (O42275 whole entry): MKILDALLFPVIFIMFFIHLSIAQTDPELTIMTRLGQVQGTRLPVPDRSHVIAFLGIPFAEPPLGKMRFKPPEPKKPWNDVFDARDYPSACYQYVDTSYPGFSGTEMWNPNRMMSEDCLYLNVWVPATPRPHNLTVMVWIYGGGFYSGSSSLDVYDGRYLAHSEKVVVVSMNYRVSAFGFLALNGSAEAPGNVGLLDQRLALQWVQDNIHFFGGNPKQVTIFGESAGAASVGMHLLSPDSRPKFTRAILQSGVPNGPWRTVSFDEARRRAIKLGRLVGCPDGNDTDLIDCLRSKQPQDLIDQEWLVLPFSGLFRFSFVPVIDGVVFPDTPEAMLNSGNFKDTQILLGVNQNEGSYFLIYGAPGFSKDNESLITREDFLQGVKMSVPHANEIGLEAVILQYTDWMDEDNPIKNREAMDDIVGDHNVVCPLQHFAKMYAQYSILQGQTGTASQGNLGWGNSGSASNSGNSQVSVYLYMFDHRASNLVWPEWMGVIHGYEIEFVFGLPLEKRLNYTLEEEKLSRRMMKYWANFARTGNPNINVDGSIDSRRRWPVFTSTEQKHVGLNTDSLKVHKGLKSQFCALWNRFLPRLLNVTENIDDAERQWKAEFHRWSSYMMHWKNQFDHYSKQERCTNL
T1 sequence (P05067 whole entry): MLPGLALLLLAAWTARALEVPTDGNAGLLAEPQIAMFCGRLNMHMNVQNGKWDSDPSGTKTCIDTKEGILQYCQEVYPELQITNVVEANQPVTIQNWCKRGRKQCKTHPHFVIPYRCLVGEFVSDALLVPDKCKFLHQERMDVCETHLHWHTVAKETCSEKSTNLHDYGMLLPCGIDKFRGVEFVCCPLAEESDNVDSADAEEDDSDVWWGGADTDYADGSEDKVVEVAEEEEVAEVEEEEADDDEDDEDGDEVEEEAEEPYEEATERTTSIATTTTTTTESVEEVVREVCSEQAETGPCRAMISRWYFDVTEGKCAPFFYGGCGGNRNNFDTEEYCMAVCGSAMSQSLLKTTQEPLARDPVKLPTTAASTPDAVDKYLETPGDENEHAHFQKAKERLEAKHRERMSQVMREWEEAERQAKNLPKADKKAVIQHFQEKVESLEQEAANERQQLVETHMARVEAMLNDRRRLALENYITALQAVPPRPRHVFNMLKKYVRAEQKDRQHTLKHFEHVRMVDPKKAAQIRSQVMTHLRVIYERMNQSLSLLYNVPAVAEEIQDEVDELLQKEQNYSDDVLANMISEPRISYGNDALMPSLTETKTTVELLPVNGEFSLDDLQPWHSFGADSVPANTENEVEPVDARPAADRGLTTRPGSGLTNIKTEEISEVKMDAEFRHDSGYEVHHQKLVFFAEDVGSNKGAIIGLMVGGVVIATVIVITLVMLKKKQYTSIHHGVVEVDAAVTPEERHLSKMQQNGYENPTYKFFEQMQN
Sequence of Cholinesterase (P81908 whole entry): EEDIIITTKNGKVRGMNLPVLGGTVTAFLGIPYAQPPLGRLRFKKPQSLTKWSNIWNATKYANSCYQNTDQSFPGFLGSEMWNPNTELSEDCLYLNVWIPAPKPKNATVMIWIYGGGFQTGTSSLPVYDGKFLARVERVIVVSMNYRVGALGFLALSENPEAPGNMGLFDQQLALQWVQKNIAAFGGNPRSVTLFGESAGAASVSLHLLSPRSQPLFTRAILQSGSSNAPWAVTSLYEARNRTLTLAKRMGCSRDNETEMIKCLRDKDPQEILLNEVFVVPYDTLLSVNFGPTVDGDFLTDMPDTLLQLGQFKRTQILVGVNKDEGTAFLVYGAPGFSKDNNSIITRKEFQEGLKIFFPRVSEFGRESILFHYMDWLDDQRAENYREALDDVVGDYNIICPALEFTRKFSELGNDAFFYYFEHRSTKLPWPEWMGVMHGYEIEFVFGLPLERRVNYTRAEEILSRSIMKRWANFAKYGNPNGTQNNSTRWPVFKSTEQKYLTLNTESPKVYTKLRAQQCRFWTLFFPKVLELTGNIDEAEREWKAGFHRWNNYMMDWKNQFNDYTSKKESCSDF
Sequence of Acetylcholinesterase (Electrophorus electricus) (O42275 24-633 limits assumed): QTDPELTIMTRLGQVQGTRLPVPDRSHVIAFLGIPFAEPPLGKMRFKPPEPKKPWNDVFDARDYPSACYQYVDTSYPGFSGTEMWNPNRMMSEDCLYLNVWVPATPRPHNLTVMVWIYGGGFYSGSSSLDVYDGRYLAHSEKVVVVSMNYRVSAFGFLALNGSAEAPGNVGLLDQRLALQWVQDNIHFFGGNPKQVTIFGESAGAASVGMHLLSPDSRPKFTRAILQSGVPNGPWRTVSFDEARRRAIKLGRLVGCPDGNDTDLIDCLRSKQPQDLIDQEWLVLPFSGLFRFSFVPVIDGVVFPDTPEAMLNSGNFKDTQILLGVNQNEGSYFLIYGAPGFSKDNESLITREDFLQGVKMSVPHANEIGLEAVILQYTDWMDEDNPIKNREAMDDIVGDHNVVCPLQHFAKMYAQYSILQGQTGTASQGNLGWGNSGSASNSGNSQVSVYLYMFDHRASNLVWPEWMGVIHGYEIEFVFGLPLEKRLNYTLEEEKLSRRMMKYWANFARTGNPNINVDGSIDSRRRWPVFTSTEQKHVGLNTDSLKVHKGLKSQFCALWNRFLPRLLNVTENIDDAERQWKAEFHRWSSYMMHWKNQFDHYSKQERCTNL

Molecule `COc1cc2c(cc1OC)C(=O)/C(=C/c1ccc(N3CCN(C(c4ccc(F)cc4)c4ccc(F)cc4)CC3)cc1)C2` has an IC50 (Acetylcholinesterase) of 45 nM, an IC50 (Cholinesterase) of 3010 nM and a Ratio IC50 [1] of 67. It also gave an inhibition [2] of 83.7%, an IC50 [3] of 7400 nM and a Ratio IC50 [4] of 2.96. The inhibition [5] was “Active”, the Activity (umolequiv/umol) [6] was 2.98 and the Activity [7] was “Dose-dependent effect”. It also gave a viability at 48 h, 1 µM [8] of 97.1%, a viability at 48 h, 5 µM [9] of 95.4% and a viability at 48 h, 10 µM [10] of 95.7%. For the same molecule, the viability at 48 h, 25 µM [11] was 92.8%, the viability at 48 h, 50 µM [12] was 88.6% and the viability at 48 h, 75 µM [13] was 84.3%. For the same molecule, the viability at 48 h, 100 µM [14] was 80.3%, the inhibition (SH-SY5Y [15]) was “Active” and the Activity (SH-SY5Y [16]) was “Active”. The Activity (SH-SY5Y [17]) was “Active”, the Activity (SH-SY5Y [18]) was “Active” and the Activity (SH-SY5Y [19]) was “Active”. For the same molecule, the Activity (SH-SY5Y [20]) was “Active”, the Activity (SH-SY5Y [21]) was “Active” and the Activity (SH-SY5Y [22]) was “Active”. The Activity (SH-SY5Y [23]) was “Active” and the Activity (SH-SY5Y [24]) was “Active”.
In the case of `COc1cc2c(cc1OC)C(=O)/C(=C/c1ccc(N3CCN(c4ccc(F)cc4)CC3)cc1)C2`, the IC50 (Acetylcholinesterase) is reported as 528 nM, the IC50 (Cholinesterase) is reported as 3240 nM and the Ratio IC50 [1] is reported as 6.1. It also gave an inhibition [2] of 66.8% and an Activity (umolequiv/umol) [6] of 1.93.
With `COc1cc2c(cc1OC)C(=O)/C(=C/c1ccc(N3CCN(c4ccc(C(F)(F)F)cc4)CC3)cc1)C2` the IC50 (Acetylcholinesterase) was 153 nM, the IC50 (Cholinesterase) was 214 nM and the Ratio IC50 [1] was 1.4. The inhibition [2] was 64.2% and the Activity (umolequiv/umol) [6] was 1.72.
With `COc1cc2c(cc1OC)C(=O)/C(=C/c1ccc(N3CCN(Cc4ccc5c(c4)OCO5)CC3)cc1)C2` the IC50 (Acetylcholinesterase) was 1860 nM, the IC50 (Cholinesterase) was 12200 nM and the Ratio IC50 [1] was 6.5. For the same molecule, the inhibition [2] was 64.5% and the Activity (umolequiv/umol) [6] was 3.35.
`COc1ccc(N2CCN(c3ccc(/C=C4\Cc5cc(OC)c(OC)cc5C4=O)cc3)CC2)cc1` showed an IC50 (Acetylcholinesterase) of 119 nM, an IC50 (Cholinesterase) of 603 nM and a Ratio IC50 [1] of 5.06. For the same molecule, the inhibition [2] was 70.5%, the Ratio [25] was 1.26 and the Activity (umolequiv/umol) [6] was 3.39.
`COc1cc2c(cc1OC)C(=O)/C(=C/c1ccc(N3CCN(c4ccc(C)cc4C)CC3)cc1)C2` showed an IC50 (Acetylcholinesterase) of 112 nM, an IC50 (Cholinesterase) of 5130 nM and a Ratio IC50 [1] of 45.8. The inhibition [2] was 65.7% and the Activity (umolequiv/umol) [6] was 1.35.
With `COc1cc2c(cc1OC)C(=O)/C(=C/c1ccc(N3CCN(c4ncccn4)CC3)cc1)C2` the IC50 (Acetylcholinesterase) was 25 nM, the IC50 (Cholinesterase) was 2430 nM and the Ratio IC50 [1] was 97.3. For the same molecule, the inhibition [26] was “Active”, the inhibition [2] was 81.6% and the IC50 [3] was 9900 nM. The inhibition [5] was “Active”, the Activity (umolequiv/umol) [6] was 2.34 and the Activity [7] was “Dose-dependent effect”. For the same molecule, the viability at 48 h, 1 µM [8] was 98.5%, the viability at 48 h, 5 µM [9] was 96.1% and the viability at 48 h, 10 µM [10] was 94.7%. It also gave a viability at 48 h, 25 µM [11] of 92.8%, a viability at 48 h, 50 µM [12] of 89.3% and a viability at 48 h, 75 µM [13] of 85.7%. The viability at 48 h, 100 µM [14] was 82.4%, the inhibition (SH-SY5Y [15]) was “Active” and the Activity (SH-SY5Y [27]) was “Active”. The Activity (SH-SY5Y [17]) was “Active”, the Activity (SH-SY5Y [18]) was “Active” and the Activity (SH-SY5Y [19]) was “Active”. The Activity (SH-SY5Y [28]) was “Active”, the Activity (SH-SY5Y [21]) was “Active” and the Activity (SH-SY5Y [22]) was “Active”. For the same molecule, the Activity (SH-SY5Y [23]) was “Active” and the Activity (SH-SY5Y [24]) was “Active”.
With `COc1cc2c(cc1OC)C(=O)/C(=C/c1ccc(N3CCN(c4ccc(C)cc4)CC3)cc1)C2` the IC50 (Acetylcholinesterase) was 194 nM, the IC50 (Cholinesterase) was 1850 nM and the Ratio IC50 [1] was 9.5. The inhibition [2] was 63.5% and the Activity (umolequiv/umol) [6] was 1.3.
